The values that follow come from patent publication US8129396B2, “2-[1H-benzimidazol-2(3H)-ylidene]-2-(pyrimidin-2-yl)acetamides and 2-[benzothiazol-2(3H)-ylidene]-2-(pyrimidin-2-yl)acetamides as kinase inhibitors” (Telik, Inc., priority 2008, dated 2012).

Some results are limits rather than exact numbers.

One test deals with T1, Aurora B kinase (Homo sapiens, UniProt Q96GD4).
T1 construct: purchased BPS Bioscience
Description: Aurora B kinase assay (IMAP fluorescence polarization). The class given is biochemical. The note with it: 10 μM ATP; rounded to 1 significant figure; read-out: Aur-B IC50. A digest of the protocol: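 Reaction started with 100 nM fluorescein-labelled PKAtide and 10 μM ATP, run 45 min at room temperature, then stopped with IMAP binding reagent (1:400). After 30 min shaking at room temperature, fluorescence polarization read; run in duplicate with solvent control.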
For orientation: Fluorescence polarisation rises when a labelled molecule tumbles more slowly, as on binding a larger partner.

In a further test the target is T2, VEGFR2 kinase (Homo sapiens, UniProt P35968).
T2 construct: purchased Cell Signaling Technology
Description: VEGFR2 kinase assay. In kind it is biochemical. The note with it: 6 μM ATP, 1 mM MnCl2; rounded to 1 significant figure. A digest of the protocol:
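VEGFR2 phosphorylates CSKtide with 6 μM ATP and 1 mM MnCl2 for 1 hr, otherwise following the Aurora A kinase protocol. Detection by IMAP fluorescence polarization, binding reagent diluted 1:1200 in 1:1 binding buffer A/B. Run in duplicate with solvent control.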

Test [1] deals with HCT116 (human colon carcinoma) cells. Description: HCT116 cytotoxicity assay (CellTiter-Glo). In kind it is cell-based. The settings on record: HCT-116, 72 h, cytotoxicity, three days culture, read-out: HCT116 IC50.
For test [2], the system named is HL60 (human promyelocytic leukemia) cells. Description: HL60 cytotoxicity assay (CellTiter-Glo). In kind it is cell-based. The settings on record: HL-60, 72 h, cytotoxicity, three days culture, read-out: HL60 IC50. The text has this: The cell lines HL60 (human promyelocytic leukemia) and HCT116 (human colon carcinoma) were obtained from the American Type Culture Collection, Manassas, Va., U.S.A., and HUVEC-2 (human umbilical vein endothelial cells) from BD Biosciences, Bedford, Mass., U.S.A. Aurora A kinase was obtained from Upstate Biotech, Billerica, Mass., U.S.A.; Aurora B kinase from BPS Bioscience, San Diego, Calif., U.S.A.; and VEGFR2 kinase from Cell Signaling Technology, Danvers, Mass., U.S.A. The IMAP FP Screening Express kit was obtained from Molecular Devices, Sunnyvale, Calif., U.S.A.; the CellTiter-Glo assay kit from Promega Corporation, Madison, Wis., U.S.A.; and the Cellular DNA Cytometric Analysis Reagent Kit and BrdU labeling and detection kit from Roche Diagnostics Corporation, Indianapolis, Ind., U.S.A. All products were used in accordance with manufacturer's directions. Kinase inhibition assays and the histone phosphorylation (p-H3) assay were conducted in duplicate, and the cytotoxicity and HUVEC proliferation assays were conducted in triplicate, in each case with solvent control.
Log-phase cells were trypsinized, collected by centrifugation, and resuspended in a small volume of fresh medium, and the density of viable cells was determined following Trypan Blue staining. Cells were diluted in fresh media (1×10^4 cells/mL for HL60 and 4×10^4 cells/mL for HCT116 cells), the test compounds (concentrations between 0.1 μM and 200 μM, dissolved in DMSO, 50 μL) added immediately after dilution to achieve a final DMSO concentration of 0.5%, then the suspensions added at 150 μL/well to 96-well plates, and incubated overnight to allow attachment in the case of adherent cells. The cells were cultured for three days (about three doubling times). The cells were then collected by centrifugation, and 100 μL of the culture supernatant was replaced by the CellTiter-Glo reagent. After incubation for 15 minutes at room temperature, the plate was read with a luminometer.
On the technique in general: Cellular ATP, detected with luciferase, serves as a proxy for viable cell number.

In another test the target is T3, Aurora A kinase (Homo sapiens, UniProt O14965).
T3 construct: purchased Upstate Biotech
T3 sequence (O14965 1-403): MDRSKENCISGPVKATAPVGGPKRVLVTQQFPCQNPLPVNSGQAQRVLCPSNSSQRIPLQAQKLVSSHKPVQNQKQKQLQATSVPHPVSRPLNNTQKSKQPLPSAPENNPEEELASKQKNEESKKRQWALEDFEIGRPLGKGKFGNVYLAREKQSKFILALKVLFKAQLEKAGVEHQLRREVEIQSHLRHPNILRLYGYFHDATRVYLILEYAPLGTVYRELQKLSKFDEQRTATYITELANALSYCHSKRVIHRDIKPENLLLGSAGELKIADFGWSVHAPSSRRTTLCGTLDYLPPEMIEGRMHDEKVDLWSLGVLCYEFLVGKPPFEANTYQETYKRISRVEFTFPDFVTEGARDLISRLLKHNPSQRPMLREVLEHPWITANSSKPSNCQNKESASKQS
Description: Aurora A kinase assay (IMAP fluorescence polarization). In kind it is biochemical. The settings on record: 10 μM ATP; rounded to 1 significant figure; read-out: Aur-A IC50. Summed up: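 Compounds (eight 3-fold dilutions, 2.5% DMSO final) were preincubated 5 min at room temperature with Aurora A kinase in buffer with 1 mM DTT. Reaction with 100 nM fluorescein-PKAtide and 10 μM ATP ran 45 min at room temperature, then was stopped with IMAP binding reagent; fluorescence polarization was read after 30 min.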

The subject of the next test is p-H3 in HCT116 cells. In words: Histone phosphorylation (p-H3) assay. The class given is cell-based. The note with it: Homo sapiens, HCT-116; HCT116 cells, 4 hr incubation; read-out: p-H3 IC50. A digest of the protocol:
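HCT116 cells (2.5×10^4/well, attached overnight) treated 4 h with 8-point 3-fold compound dilutions at 0.5% DMSO. Lysates dot-blotted onto nitrocellulose and probed for p-H3 with β-actin on the same membrane, fluorescent secondary antibodies, Odyssey scan; duplicate wells.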

T2 sequence (P35968 20-1356): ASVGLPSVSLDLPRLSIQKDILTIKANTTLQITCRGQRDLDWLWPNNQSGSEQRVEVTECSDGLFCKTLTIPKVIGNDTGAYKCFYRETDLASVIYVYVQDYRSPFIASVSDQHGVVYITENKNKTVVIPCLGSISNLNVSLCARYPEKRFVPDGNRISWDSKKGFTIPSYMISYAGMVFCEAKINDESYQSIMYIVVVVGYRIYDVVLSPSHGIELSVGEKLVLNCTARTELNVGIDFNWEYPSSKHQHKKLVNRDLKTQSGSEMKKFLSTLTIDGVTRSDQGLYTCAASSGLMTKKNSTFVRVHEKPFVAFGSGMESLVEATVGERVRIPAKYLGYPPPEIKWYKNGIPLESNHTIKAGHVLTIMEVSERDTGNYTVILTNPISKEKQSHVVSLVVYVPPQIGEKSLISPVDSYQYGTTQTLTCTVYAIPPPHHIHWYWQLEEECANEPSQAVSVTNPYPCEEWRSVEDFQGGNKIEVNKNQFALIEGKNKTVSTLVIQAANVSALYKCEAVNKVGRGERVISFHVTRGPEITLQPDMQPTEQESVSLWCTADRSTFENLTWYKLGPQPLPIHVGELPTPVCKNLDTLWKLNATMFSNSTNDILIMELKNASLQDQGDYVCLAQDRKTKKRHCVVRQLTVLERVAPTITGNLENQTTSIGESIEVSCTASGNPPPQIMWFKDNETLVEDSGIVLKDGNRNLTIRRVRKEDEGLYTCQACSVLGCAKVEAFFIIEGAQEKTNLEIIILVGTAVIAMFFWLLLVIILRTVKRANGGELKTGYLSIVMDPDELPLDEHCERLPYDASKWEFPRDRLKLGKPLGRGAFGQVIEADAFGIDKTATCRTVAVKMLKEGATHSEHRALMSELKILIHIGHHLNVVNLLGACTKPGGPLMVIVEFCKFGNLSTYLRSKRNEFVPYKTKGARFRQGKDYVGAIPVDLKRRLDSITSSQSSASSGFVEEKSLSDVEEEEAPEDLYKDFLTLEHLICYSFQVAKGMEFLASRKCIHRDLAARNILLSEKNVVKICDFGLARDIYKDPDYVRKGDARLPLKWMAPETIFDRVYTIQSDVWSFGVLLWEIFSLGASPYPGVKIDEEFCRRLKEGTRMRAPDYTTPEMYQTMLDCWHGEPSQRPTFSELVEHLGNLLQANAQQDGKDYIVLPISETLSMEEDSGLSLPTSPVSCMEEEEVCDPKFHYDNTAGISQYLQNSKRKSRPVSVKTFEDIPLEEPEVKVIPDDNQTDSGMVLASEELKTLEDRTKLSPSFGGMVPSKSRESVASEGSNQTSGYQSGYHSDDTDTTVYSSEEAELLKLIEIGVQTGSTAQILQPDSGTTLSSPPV
T1 sequence (Q96GD4 whole entry): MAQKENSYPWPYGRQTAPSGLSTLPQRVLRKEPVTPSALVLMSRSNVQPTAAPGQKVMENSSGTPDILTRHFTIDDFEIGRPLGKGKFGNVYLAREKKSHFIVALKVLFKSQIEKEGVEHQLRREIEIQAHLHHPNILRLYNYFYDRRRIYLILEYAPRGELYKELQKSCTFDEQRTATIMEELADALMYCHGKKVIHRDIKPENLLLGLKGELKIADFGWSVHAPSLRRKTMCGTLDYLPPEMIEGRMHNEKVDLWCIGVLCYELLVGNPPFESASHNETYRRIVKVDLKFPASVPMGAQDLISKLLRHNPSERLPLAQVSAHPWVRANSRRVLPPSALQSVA

As a reminder, the IC50 is the concentration needed to halve the response being measured. For the compound `NC(=O)C(=C1Nc2ccc(N)cc2S1)c1nccc(C(F)(F)F)n1` (single isomer, unassigned) [Compound 32A, 2-[6-aminobenzothiazol-2(3H)-ylidene]-2-(4-trifluoromethylpyrimidin-2-yl)acetamide], the IC50 at Aurora B kinase amounted to 10 nM; against VEGFR2 kinase, 40 nM; in test [1], 5000 nM; in test [2], 3000 nM; at Aurora A kinase, 10 nM; in the test on p-H3 in HCT116 cells, 400 nM.
Take `NC(=O)/C(=C1\Nc2ccccc2S1)c1nc(-c2ccccn2)cc(C(F)(F)F)n1` [Compound 11A]: the IC50 was 10 nM at Aurora B kinase; 4000 nM in test [1]; 3000 nM in test [2]; 40 nM at Aurora A kinase; greater than 5000 nM with p-H3 in HCT116 cells.
For the compound `NC(=O)/C(=C1\Nc2ccccc2S1)c1nccc(-c2ccccc2)n1` [Compound 20A], the IC50 is 20 nM on Aurora B kinase; 200 nM at VEGFR2 kinase; 8000 nM in test [1]; 600 nM in test [2]; 90 nM at Aurora A kinase; greater than 5000 nM with p-H3 in HCT116 cells.
Take `NC(=O)/C(=C1\Nc2ccc(NC(=O)C3CC3)cc2N1)c1nccc(C(F)(F)F)n1` [Compound 33A]: the IC50 at Aurora B kinase amounted to 10 nM; against VEGFR2 kinase, 9 nM; in test [1], 300 nM; in test [2], 300 nM; on Aurora A kinase it was 2 nM; in the test on p-H3 in HCT116 cells, 500 nM.
Turning to `NC(=O)/C(=C1\Nc2ccc(-c3cccnc3)cc2N1)c1nccc(C(F)(F)F)n1` [Compound 107A], the half-maximal inhibitory concentration (IC50) on Aurora B kinase is 20 nM; against VEGFR2 kinase it was 40 nM; in test [1], 5000 nM; in test [2], 1000 nM; at Aurora A kinase, 8 nM; in the test with p-H3 in HCT116 cells, greater than 5000 nM.
With `CCN(C(=O)CN1CCCCC1)c1ccc2c(c1)N/C(=C(/C(N)=O)c1nccc(C(F)(F)F)n1)N2` [Compound 146A], the IC50 at Aurora B kinase was determined as 5 nM; in test [1] it was 400 nM; in test [2] it was 800 nM; on Aurora A kinase it was 20 nM; in the test on p-H3 in HCT116 cells, 200 nM.
`Cc1cc(C(F)(F)F)nc(/C(C(N)=O)=C2/Nc3ccccc3S2)n1` [Compound 8A]: the 50% inhibitory concentration (IC50) amounted to 8 nM on Aurora B kinase; 60 nM against VEGFR2 kinase; 2000 nM in test [1]; 200 nM in test [2]; 10 nM at Aurora A kinase; 1000 nM in the test with p-H3 in HCT116 cells.
Turning to `NC(=O)/C(=C1\Nc2ccc(-c3ccccn3)cc2N1)c1nccc(C(F)(F)F)n1` [Compound 109A], the 50% inhibitory concentration (IC50) at Aurora B kinase was 9 nM; against VEGFR2 kinase, 50 nM; in test [1], 3000 nM; in test [2], 500 nM; at Aurora A kinase it was 20 nM; in the test with p-H3 in HCT116 cells, greater than 5000 nM.
As to `NC(=O)/C(=C1\Nc2ccc(NC(=O)C3(N)CC3)cc2N1)c1nccc(C(F)(F)F)n1` [Compound 34A], the IC50 on Aurora B kinase came out at 6 nM; on VEGFR2 kinase, 10 nM; in test [1] it was 600 nM; in test [2] it was 200 nM; at Aurora A kinase, 5 nM; with p-H3 in HCT116 cells, 400 nM.
In the case of `Cc1cc(C(F)(F)F)nc(C(C(N)=O)=C2Nc3ccc(NC(=O)[C@@H]4CCCN4C)cc3N2)n1` (single isomer, unassigned) [Compound 144A], the concentration for half-maximal inhibition (IC50) on Aurora B kinase amounted to 6 nM; in test [1], 400 nM; in test [2], 500 nM; at Aurora A kinase, 5 nM; with p-H3 in HCT116 cells, 100 nM.
For `NC(=O)/C(=C1\Nc2ccc(CCN3CCC(F)(F)CC3)cc2S1)c1nccc(C(F)(F)F)n1` [Compound 104A], the IC50 is 10 nM at Aurora B kinase; 60 nM against VEGFR2 kinase; 3000 nM in test [1]; 1000 nM in test [2]; 30 nM on Aurora A kinase; 2000 nM in the test with p-H3 in HCT116 cells.
`NC(=O)/C(=C1\Nc2ccc(CCn3ccnc3)cc2N1)c1nccc(C(F)(F)F)n1` [Compound 96A]: the IC50 at Aurora B kinase was 3 nM; against VEGFR2 kinase it was 6 nM; in test [1], 300 nM; in test [2], 100 nM; at Aurora A kinase, 2 nM; in the test on p-H3 in HCT116 cells, 40 nM.
In the case of `NC(=O)/C(=C1\Nc2cc(F)c(Cl)cc2N1)c1nccc(C(F)(F)F)n1` [Compound 37A], the IC50 on Aurora B kinase was 20 nM; on VEGFR2 kinase, 400 nM; in test [1], 2000 nM; in test [2], 4000 nM; at Aurora A kinase it was 30 nM; with p-H3 in HCT116 cells, 500 nM.
Regarding `NC(=O)/C(=C1\Nc2ccccc2S1)c1nc(N)cc(C(F)(F)F)n1` [Compound 13A], the 50% inhibitory concentration (IC50) on Aurora B kinase is 3 nM; in test [1], 700 nM; in test [2], 1000 nM; at Aurora A kinase, 10 nM; with p-H3 in HCT116 cells, 800 nM.
As for `CCN(CCCn1ccnc1)C(=O)c1ccc2c(c1)S/C(=C(/C(N)=O)c1nccc(C(F)(F)F)n1)N2` [Compound 49A], the IC50 at Aurora B kinase is 5 nM; in test [1] it was 400 nM; in test [2] it was 1000 nM; at Aurora A kinase it was 3 nM; in the test with p-H3 in HCT116 cells, 100 nM.
`NC(=O)/C(=C1\Nc2ccc(C(=O)NCCCn3ccnc3)cc2S1)c1nccc(C(F)(F)F)n1` [Compound 46A]: the concentration for half-maximal inhibition (IC50) at Aurora B kinase was 10 nM; on VEGFR2 kinase it was 40 nM; in test [1], 400 nM; in test [2], 200 nM; at Aurora A kinase, 6 nM; in the test on p-H3 in HCT116 cells it was 200 nM.
In the case of `NC(=O)C(=C1Nc2ccccc2S1)c1ncc(C(=O)O)c(C(F)(F)F)n1` (single isomer, unassigned) [Compound 5A, 2-[benzothiazol-2(3H)-ylidene]-2-(5-carboxy-4-trifluoromethylpyrimidin-2-yl)acetamide], the half-maximal inhibitory concentration (IC50) on Aurora B kinase is 8 nM; against VEGFR2 kinase it was 20 nM; in test [1], 10000 nM; in test [2] it was greater than 10000 nM; on Aurora A kinase, 20 nM; with p-H3 in HCT116 cells, 3000 nM.
`CCN(C(=O)[C@@H]1CCCN1C)c1ccc2c(c1)N/C(=C(/C(N)=O)c1nccc(C(F)(F)F)n1)N2` [Compound 145A]: the IC50 stood at 4 nM on Aurora B kinase; 10 nM at VEGFR2 kinase; 200 nM in test [1]; 400 nM in test [2]; 20 nM on Aurora A kinase; 80 nM with p-H3 in HCT116 cells.
Consider `NC(=O)/C(=C1\Nc2ccccc2S1)c1nc(-c2cccnc2)cc(C(F)(F)F)n1` [Compound 10A], for which the concentration for half-maximal inhibition (IC50) at Aurora B kinase came to 10 nM; at VEGFR2 kinase, 40 nM; in test [1], 1000 nM; in test [2] it was 2000 nM; on Aurora A kinase, 10 nM; in the test on p-H3 in HCT116 cells, 5000 nM.
On to `Cn1ccnc1CCc1ccc2c(c1)S/C(=C(/C(N)=O)c1nccc(C(F)(F)F)n1)N2` [Compound 97A], for which the concentration for half-maximal inhibition (IC50) is 7 nM at Aurora B kinase; 600 nM in test [1]; 1000 nM in test [2]; 20 nM on Aurora A kinase; 100 nM with p-H3 in HCT116 cells.
